Assay results from patent US20060100431A1, “Biologically active compounds” (Amura Therapeutics Limited, priority 2002, published 2006).

Molecular target: T1, human cathepsin K (Homo sapiens, UniProt P43235)
T1 construct: Dr. Boris Turk (Josef Stefan Institute, Ljubljana, Slovenia)
T1 sequence (P43235 115-329): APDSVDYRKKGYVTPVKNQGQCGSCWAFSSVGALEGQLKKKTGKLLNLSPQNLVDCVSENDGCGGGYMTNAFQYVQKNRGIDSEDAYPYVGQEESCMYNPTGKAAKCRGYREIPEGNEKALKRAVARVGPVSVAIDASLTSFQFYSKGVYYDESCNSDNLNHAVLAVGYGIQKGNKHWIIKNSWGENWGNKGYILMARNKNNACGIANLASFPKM
Experiment: Cathepsin K peptidase activity assay (Ki)
Type: biochemical
Settings: Table 5
Experimental: Unless otherwise stated, all general chemicals and biochemicals were purchased from either the Sigma Chemical Company, Poole, Dorset, U.K or from Fisher Scientific UK, Loughborough, Leicestershire, U.K. Absorbance assays were carried out in flat-bottomed 96-well plates (Spectra; Greiner Bio-One Ltd., Stonehouse, Gloucestershire, U.K.) using a SpectraMax PLUS384 plate reader (Molecular Devices, Crawley, U.K.). […] Fluorescence assays were monitored using a SpectraMax Gemini fluorescence plate reader (Molecular Devices). For substrates employing either a 7-amino-4-methylcoumarin (AMC) or a 7-amino-4-trifluoromethylcoumarin (AFC) fluorophore, assays were monitored at an excitation wavelength of 365 nm and an emission wavelength of 450 nm and the fluorescence plate reader calibrated with AMC. For substrates employing a 3-amino-benzoyl (Abz) fluorophore, assays were monitored at an excitation wavelength of 310 nm and an emission wavelength of 445 nm; the fluorescence plate reader calibrated with 3-amino-benzamide (Fluka). Unless otherwise indicated, all the peptidase substrates were purchased from Bachem UK, St Helens, Merseyside, UK. […] Hydroxyethylpiperazine ethanesulfonate (HEPES), tris-hydroxylmethyl aminomethane (tris) base, bis-tris-propane and all the biological detergents (e.g. CHAPS, zwittergents, etc.) were purchased from CN Biosciences UK, Beeston, Nottinghamshire, U.K. Glycerol was purchased from Amersham Pharmacia Biotech, Little Chalfont, Buckinghamshire, U.K. Stock solutions of substrate or inhibitor were made up to 10 mM in 100% dimethylsulfoxide (DMSO) (Rathburns, Glasgow, U.K.) and diluted as appropriately required. In all cases the DMSO concentration in the assays was maintained at less than 1% (vol./vol.).
Enzyme was added as required to initiate the reaction and the activity, as judged by the change in fluorescence upon conversion of substrate to product, was monitored over time. All assays were carried out at 25±1° C.
Bovine cathepsin S, human cathepsin L, human cathepsin H and human cathepsin B were obtained from CN Biosciences. Recombinant human cathepsin S, human cathepsin K and human cathepsin X were obtained from Dr. Boris Turk (Josef Stefan Institute, Ljubljana, Slovenia). Unless otherwise stated, all peptidase activity assays were carried out in 10 mM bis-tris-propane (BTP), pH 6.5 containing 1 mM EDTA, 5 mM 2-mercaptoethanol and 1 mM CaCl2.
The apparent inhibition constant (Ki) for each compound was determined on the basis that inhibition was reversible and occurred by a pure-competitive mechanism. […] [formula]
[formula] Ki^app=Ki(1+[So]/KM^app) (4)
Curves were fitted by non-linear regression analysis (Prism) using a fixed value for the enzyme concentration.

First: CC(C)C[C@H](NC(=O)c1ccc(-c2cccs2)cc1)C(=O)N1CC[C@@H]2[C@H]1C(=O)CN2C(=O)c1ccccc1 [Example 2, (3aR,6aS)-N-[(1S)-1-(4-Benzoyl-6-oxo-hexahydro-pyrrolo[3,2-b]pyrrole-1-carbonyl)-3-methyl-butyl]-4-thiophen-2-yl-benzamide]
Second: CC(C)(C)c1ccc(C(=O)N[C@@H](Cc2ccc(O)cc2)C(=O)N2CC[C@@H]3[C@H]2C(=O)CN3C(=O)c2ccccc2)cc1 [Example 346, (3aR,6aS)-N-[(1S)-2-(4-Benzoyl-6-oxo-hexahydro-pyrrolo[3,2-b]pyrrol-1-yl)-1-(4-hydroxybenzyl)-2-oxo-ethyl]-4-tert-butyl-benzamide]
The Ki of the first is lower: < 0.01 µM for the first, > 8 µM for the second. The first binds more tightly here.

`O=C(N[C@@H](CC1CCCCC1)C(=O)N1CC[C@@H]2[C@H]1C(=O)CN2C(=O)c1ccccc1)c1ccsc1` [Example 250, (3aR,6aS)-Thiophene-3-carboxylic acid [(1S)-2-(4-benzoyl-6-oxo-hexahydro-pyrrolo[3,2-b]pyrrole-1-yl)-1-cyclohexylmethyl-2-oxo-ethyl]-amide] and `O=C(N[C@@H](Cc1ccc(O)cc1)C(=O)N1CC[C@@H]2[C@H]1C(=O)CN2C(=O)c1ccccc1)c1cccc2ccccc12` [Example 296, (3aR,6aS)-Naphthalene-1-carboxylic acid [(1S)-2-(4-benzoyl-6-oxo-hexahydro-pyrrolo[3,2-b]pyrrole-1-yl)-1-(4-hydroxybenzyl)-2-oxo-ethyl]-amide] cannot be ordered by Ki: > 5 µM for the first, > 50 µM for the second.
